Reference: patent US6028197A, “Dibenzo[a,g]quinolizinium derivatives and the salts thereof” (Hanwha Corporation, priority 1998, dated 2000)
pIC50: −log10 of the molar value.

target: T1, sterol 14-reductase (Rattus norvegicus, UniProt A0ACM8Q6X4); experiment: Inhibition of sterol 14-reductase in rat liver microsomes; assay type: biochemical; details: microsomes; read-out: Enzyme Activity (relative in vitro activity for sterol 14-reductase, IC50 class)
T1 construct: microsome which was used as an enzyme source of sterol 14-reductase; from tissue; host or cells: liver microsomes of male Sprague-Dawley rats fed lovastatin and cholestyramine
T1 sequence (A0ACM8Q6X4 1-418): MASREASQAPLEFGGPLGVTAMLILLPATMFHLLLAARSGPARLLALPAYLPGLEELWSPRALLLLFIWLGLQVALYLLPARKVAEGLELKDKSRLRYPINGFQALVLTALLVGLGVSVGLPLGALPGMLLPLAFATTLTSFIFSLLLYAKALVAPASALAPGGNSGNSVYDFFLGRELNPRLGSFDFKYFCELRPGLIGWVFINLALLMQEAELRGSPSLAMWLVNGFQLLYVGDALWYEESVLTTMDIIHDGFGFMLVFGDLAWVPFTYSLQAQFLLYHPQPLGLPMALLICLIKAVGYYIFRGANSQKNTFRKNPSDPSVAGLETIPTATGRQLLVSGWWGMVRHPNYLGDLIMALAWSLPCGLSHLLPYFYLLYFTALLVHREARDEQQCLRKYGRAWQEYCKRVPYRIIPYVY

Structure (SMILES)	pIC50
CCc1c2[n+](cc3c(OCc4ccc(C)c([N+](=O)[O-])c4)c(OC)ccc13)CCc1cc(OC)c(OC)cc1-2 [Compound No. 6, 5,6-dihydro-2,3-dimethoxybenzo[a]-13-ethyl-10-methoxy-9-(4-methyl-3-nitro)benzyloxybenzo[g]quinolizinium chloride]	> 6.00
CCc1c2[n+](cc3c(OCc4ccccc4C(F)(F)F)c(OC)ccc13)CCc1cc(OC)c(OC)cc1-2 [Compound No. 33, 5,6-dihydro-2,3-dimethoxybenzo[a]-13-ethyl-10-methoxy-9-(2-trifluoromethyl)benzyloxybenzo[g]quinolizinium chloride]	< 4.00

same assay, conditions: read-out: Enzyme Activity (relative in vitro activity for sterol 14-reductase, IC50 class)

Structure (SMILES)	pIC50
CCCCCCCCCCCCOc1c(OC)ccc2c(CC)c3[n+](cc12)CCc1cc(OC)c(OC)cc1-3 [Compound No. 1, 5,6-dihydro-2,3-dimethoxybenzo[a]-9-dodecoxy-13-ethyl-10-methoxybenzo[g]quinolizinium chloride]	> 6.00
CCc1c2[n+](cc3c(OCc4ccc(F)cc4C(F)(F)F)c(OC)ccc13)CCc1cc(OC)c(OC)cc1-2 [Compound No. 4, 5,6-dihydro-2,3-dimethoxybenzo[a]-13-ethyl-9-[4-fluoro-2-(trifluoromethyl)benzyloxy]-10-methoxybenzo[g]-quinolizinium chloride]	4.00 to 5.00
CCc1c2[n+](cc3c(OCc4cc(OC)c(OC)cc4[N+](=O)[O-])c(OC)ccc13)CCc1cc(OC)c(OC)cc1-2 [Compound No. 5, 5,6-dihydro-2,3-dimethoxybenzo[a]-9-(4,5-dimethoxy-2-nitro)benzyloxy-13-ethyl-10-methoxybenzo[g]-quinolizinium chloride]	> 6.00
CCc1c2[n+](cc3c(OCc4cc([N+](=O)[O-])ccc4OC)c(OC)ccc13)CCc1cc(OC)c(OC)cc1-2 [Compound No. 7, 5,6-dihydro-2,3-dimethoxybenzo[a]-13-ethyl-10-methoxy-9-(2-methoxy-5-nitro)benzyloxybenzo[g]quinolizinium chloride]	4.00 to 5.00
C=Cc1ccc(COc2c(OC)ccc3c(CC)c4[n+](cc23)CCc2cc(OC)c(OC)cc2-4)cc1 [Compound No. 8, 5,6-dihydro-2,3-dimethoxybenzo[a]-13-ethyl-10-methoxy-9-(4-vinyl)benzyloxybenzo[g]quinolizinium chloride]	< 4.00
CCc1c2[n+](cc3c(OCc4ccc(F)cc4Cl)c(OC)ccc13)CCc1cc(OC)c(OC)cc1-2 [Compound No. 10, 5,6-dihydro-2,3-dimethoxybenzo[a]-9-(2-chloro-4-fluro)benzyloxy-13-ethyl-10-methoxybenzo[g]quinolizinium chloride]	4.00 to 5.00
CCc1c2[n+](cc3c(OCc4cccc(C(F)(F)F)c4)c(OC)ccc13)CCc1cc(OC)c(OC)cc1-2 [Compound No. 11, 5,6-dihydro-2,3-dimethoxybenzo[a]-13-ethyl-10-methoxy-9-(3-trifluoromethyl)benzyloxybenzo[g]quinolizinium chloride]	> 6.00
CCc1c2[n+](cc3c(OCc4cccc(OC)c4)c(OC)ccc13)CCc1cc(OC)c(OC)cc1-2 [Compound No. 12, 5,6-dihydro-2,3-dimethoxybenzo[a]-13-ethyl-10-methoxy-9-(3-methoxy)benzyloxybenzo[g]quinolizinium chloride]	< 4.00
CCc1c2[n+](cc3c(OCc4c(F)c(F)c(C(F)(F)F)c(F)c4F)c(OC)ccc13)CCc1cc(OC)c(OC)cc1-2 [Compound No. 13, 5,6-dihydro-2,3-dimethoxybenzo[a]-13-ethyl-10-methoxy-9-(2,3,5,6-tetrafluoro-4-trifluoromethyl)benzyloxy-benzo[g]quinolizinium chloride]	> 6.00
CCc1c2[n+](cc3c(OCc4ccc(OCc5ccccc5)cc4)c(OC)ccc13)CCc1cc(OC)c(OC)cc1-2 [Compound No. 14, 5,6-dihydro-2,3-dimethoxybenzo[a]-9-(4-benzyloxy)-benzyloxy-13-ethyl-10-methoxybenzo[g]quinolizinium chloride]	< 4.00
CCc1c2[n+](cc3c(OCc4cc(C)ccc4C)c(OC)ccc13)CCc1cc(OC)c(OC)cc1-2 [Compound No. 15, 5,6-dihydro-2,3-dimethoxybenzo[a]-9-(2,5-dimethyl)benzyloxy-13-ethyl-10-methoxybenzo[g]quinolizinium chloride]	< 4.00
CCc1c2[n+](cc3c(OCc4ccc(-c5ccccc5)cc4)c(OC)ccc13)CCc1cc(OC)c(OC)cc1-2 [Compound No. 16, 5,6-dihydro-2,3-dimethoxybenzo[a]-13-ethyl-10-methoxy-9-(4-phenyl)benzyloxybenzo[g]quinolizinium chloride]	> 6.00
CCc1c2[n+](cc3c(OCc4ccc(Cl)nc4)c(OC)ccc13)CCc1cc(OC)c(OC)cc1-2 [Compound No. 17, 5,6-dihydro-2,3-dimethoxybenzo[a]-9-(6-chloropyridine-3-yl)methoxy-13-ethyl-10-methoxybenzo[g]quinoli-zinium chloride]	> 6.00
CCc1c2[n+](cc3c(OCc4cccc(Cl)c4)c(OC)ccc13)CCc1cc(OC)c(OC)cc1-2 [Compound No. 18, 5,6-dihydro-2,3-dimethoxybenzo[a]-9-(3-chloro)-benzyloxy-13-ethyl-10-methoxybenzo[g]quinolizinium chloride]	4.00 to 5.00
CCc1c2[n+](cc3c(OCc4ccc(Br)cc4)c(OC)ccc13)CCc1cc(OC)c(OC)cc1-2 [Compound No. 19, 5,6-dihydro-2,3-dimethoxybenzo[a]-9-(4-bromo)benzyloxy-13-ethyl-10-methoxybenzo[g]quinolizinium chloride]	4.00 to 5.00
CCc1c2[n+](cc3c(OCc4ccccc4C(F)(F)F)c(OC)ccc13)CCc1cc(OC)c(OC)cc1-2 [Compound No. 20, 5,6-dihydro-2,3-dimethoxybenzo[a]-13-ethyl-10-methoxy-9-(2-trifluoromethyl)benzyloxybenzo[g]quinolizinium chloride]	4.00 to 5.00
CCc1c2[n+](cc3c(OCc4cccc(Oc5ccccc5)c4)c(OC)ccc13)CCc1cc(OC)c(OC)cc1-2 [Compound No. 21, 5,6-dihydro-2,3-dimethoxybenzo[a]-13-ethyl-10-methoxy-9-(3-phenoxy)benzyloxybenzo[g]quinolizinium chloride]	< 4.00
CCc1c2[n+](cc3c(OCc4ccc(OC)cc4)c(OC)ccc13)CCc1cc(OC)c(OC)cc1-2 [Compound No. 22, 5,6-dihydro-2,3-dimethoxybenzo[a]-13-ethyl-10-methoxy-9-(4-methoxy)benzyloxybenzo[g]quinolizinium chloride]	< 4.00
CCc1c2[n+](cc3c(OCc4c(F)cccc4Cl)c(OC)ccc13)CCc1cc(OC)c(OC)cc1-2 [Compound No. 23, 5,6-dihydro-2,3-dimethoxybenzo[a]-9-(2-chloro-6-fluoro)benzyloxy-13-ethyl-10-methoxybenzo[g]quinolizinium chloride]	4.00 to 5.00
CCc1c2[n+](cc3c(OCc4cccc([N+](=O)[O-])c4C)c(OC)ccc13)CCc1cc(OC)c(OC)cc1-2 [Compound No. 24, 5,6-dihydro-2,3-dimethoxybenzo[a]-13-ethyl-10-methoxy-9-(2-methyl-3-nitro)benzyloxybenzo[g]quinolizinium chloride]	< 4.00
CCc1c2[n+](cc3c(OCc4cc(C)ccc4[N+](=O)[O-])c(OC)ccc13)CCc1cc(OC)c(OC)cc1-2 [Compound No. 25, 5,6-dihydro-2,3-dimethoxybenzo[a]-13-ethyl-10-methoxy-9-(5-methyl-2-nitro)benzyloxybenzo[g]quinolizinium chloride]	< 4.00
C=CCOc1c(OC)ccc2c(CC)c3[n+](cc12)CCc1cc(OC)c(OC)cc1-3 [Compound No. 26, 5,6-dihydro-2,3-dimethoxybenzo[a]-13-ethyl-10-methoxy-9-allyloxybenzo[g]quinolizinium chloride]	< 4.00
CCc1c2[n+](cc3c(OCc4ccc(C)cc4C)c(OC)ccc13)CCc1cc(OC)c(OC)cc1-2 [Compound No. 28, 5,6-dihydro-2,3-dimethoxybenzo[a]-9-(2,4-dimethyl)benzyloxy-13-ethyl-10-methoxybenzo[g]quinolizinium chloride]	< 4.00
CCc1c2[n+](cc3c(OCn4nnc5ccccc54)c(OC)ccc13)CCc1cc(OC)c(OC)cc1-2 [Compound No. 29, 5,6-dihydro-2,3-dimethoxybenzo[a]-9-(1H-benzo-triazol-1-yl)methoxy-13-ethyl-10-methoxybenzo[g]-quinolizinium chloride]	4.00 to 5.00
CCc1c2[n+](cc3c(OCc4ccc(C(C)C)cc4)c(OC)ccc13)CCc1cc(OC)c(OC)cc1-2 [Compound No. 30, 5,6-dihydro-2,3-dimethoxybenzo[a]-13-ethyl-9-[4-(i-propyl)benzyloxy]-10-methoxybenzo[g]quinolizinium chloride]	< 4.00
CCc1c2[n+](cc3c(OCc4ccc(C)cc4)c(OC)ccc13)CCc1cc(OC)c(OC)cc1-2 [Compound No. 31, 5,6-dihydro-2,3-dimethoxybenzo[a]-13-ethyl-10-methoxy-9-(4-methyl)benzyloxybenzo[g]quinolizinium chloride]	< 4.00
CCc1c2[n+](cc3c(OCc4cccc(C)c4)c(OC)ccc13)CCc1cc(OC)c(OC)cc1-2 [Compound No. 32, 5,6-dihydro-2,3-dimethoxybenzo[a]-13-ethyl-10-methoxy-9-(3-methyl)benzyloxybenzo[g]quinolizinium chloride]	< 4.00
